Results published in patent publication US20230416329A1, “A PEPTIDE WITH DISULFIDE BONDS AND INHIBITORY ACTIVITY AGAINST SERINE PROTEASES, DERIVED HYBRID PEPTIDES THEREOF, AND USES THEREOF” (INSTITUTE OF MATERIA MEDICA , CHINESE ACADEMY OF MEDICAL …, priority 2020, published 2023).
Bridge positions count the residues as written; N and C are the ends. Peptide text beside a SMILES is read from it.

Target: α-chymotrypsin (Bos taurus, UniProt P00766)
Experiment: Chymotrypsin inhibitory activity of peptides (AAPFpNA hydrolysis; IC50, Ki, residual activity)
Type: biochemical
Conditions: for IC50: chymotrypsin 30 nM, AAPFpNA 0.5 mM; for Ki: Ki=IC50/(1+S/Km), Km 0.38 mM
Protocol: The inhibition constants of various synthetic active peptide inhibitors (molecular scaffolds) against seine proteases were measured. The substrates N-succinyl-Ala-Ala-Pro-Phe-p-nitroaniline (AAPFpNA), Nα—Benzoyl-L-arginine-4-nitroaniline hydrochloride (BApNA) and N-succinyl-[…] (AAApNA) are used in competitive binding reaction to determine the inhibitory activities against α-chymotrypsin, bovine trypsin, and porcine pancreatic elastase, respectively. Experiments for α-chymotrypsin and bovine trypsin inhibition were measured in 20 mM CaCl2, 50 mM Tris-HCl buffer (pH 7.8), and that for porcine elastase inhibition was measured in 50 mM Tris-HCl buffer (pH 8.0). The concentration of the peptide was measured using optical density (OD) at 280 nm. The Michaelis constant (Km) of the enzyme hydrolysis substrate is calculated from the initial rate of substrate hydrolysis at 405 nm. The absorbance value of the substrate was measured at 405 nm after complete hydrolysis. All data were processed using nonlinear regression.
• (1) Added a total 190 μL of reaction buffer (20 mM CaCl2, 50 mM Tris-HCl (pH 7.8)) into the 96 well plate, followed by preheating at 37° C. for 15 min. Then added 2 μL of different concentrations of substrates (p-Nitroanilide, pNA, 0.5% in DMSO), and mixed by centrifugation at 500 rpm for 1 min. Finally, the plate was incubated at 37° C. for 20 min, and the absorbance value at 405 nm was measured. In the 200 μL of reaction system, the final concentrations of pNA were 0, 0.025, 0.05, 0.075, 0.1, 0.125, 0.15, 0.25, and 0.3 mM, respectively. Make three repetitions for each concentration and plot the OD405 m value with pNA concentration to obtain the standard curve. • (2) Added a total 190 μL of reaction buffer (20 mM CaCl2, 50 mM Tris-HCl (pH 7.8)) and 8 μL of 0.75 μM chymotrypsin into the 96 well plate, followed by preheating at 37° C. for 5 min. Then added 2 μL of different concentrations of substrates (AAPFpNA, dissolved in DMSO), and mixed by centrifugation at 500 rpm for 1 min. Finally, the plate was incubated at 37° C. for 20 min, and the absorbance value at 405 nm was measured. In the 200 μL of reaction system, the final concentrations of AAPFpNA were 0, 0.125, 0.25, 0.285, 0.33, 0.4, and 0.5 mM, respectively. Make three repetitions for each concentration and plot the OD405 nm value with time to obtain the corresponding curve. Divide the slope of the curve by the slope of the standard curve and the enzyme concentration to obtain the initial velocity V0 (mM/(min*mM protein). Plot the initial velocity V0 with the concentration of substrate AAPFpNA using Prism software, and the Michaelis constant Km value of chymotrypsin hydrolyzing AAPFpNA was obtained.
• (1) Added a total 190 μL of reaction buffer (20 mM CaCl2, 50 mM Tris-HCl (pH 7.8)), different concentrations of anti-chymorypsin peptides (CHs) into the pre-cold 96 well plate, followed by preheating at 37° C. for 5 min and centrifugated at 500 rpm for 1 min and allowed to stand for 4 minutes. Then added 8 μL of 750 nM chymotrypsin and incubated at 37° C. for 10 min, and centrifugated at 500 rpm for 1 min and allowed to stand for 9 minutes. Finally, added 2 μL of 50 mM AAPFpNA, and mixed by centrifugation at 500 rpm for 1 min. The plate was incubated at 37° C. for 90 min, and the absorbance value at 405 nm was measured. Three repetitions were made, and only reaction buffer and substrate were added in the blank control as the minimum absorption value (Min OD405 nm); Only reaction buffer, enzyme and substrate were added in the negative control as the maximum absorption value (Max OD405). • (2) In the 200 μL of reaction system, the final concentrations of chymotrypsin and AAPFpNA were 30 nM and 0.5 mM, respectively. • (3) Data statistics
Residual activity of enzyme (%)=(1−(Max OD405 nm−Sample OD405 nm)/(Max OD405 nm−Min OD405 nm))*100 […]

Row | Compound | IC50 [nM] | inhibitory activity against chymotrypsin (in words) | Ki [nM] | further results
1 | CC[C@H](C)[C@@H]1NC(=O)[C@H](CO)NC(=O)[C@H](Cc2ccc(O)cc2)NC(=O)[C@H]([C@@H](C)O)NC(=O)[C@H](C)NC(=O)[C@H](Cc2ccc(O)cc2)NC(=O)CNC(=O)[C@@H](N)CSSC[C@@H](C(=O)N[C@@H](Cc2ccc(O)cc2)C(=O)NCC(=O)O)NC(=O)[C@H](CCC(N)=O)NC(=O)[C@@H]2CCCN2C(=O)[C@@H]2CCCN2C1=O [CH30] (H-CGYATYSIPPQCYG-OH; disulfide 1-12) | > 50000 | – | – | –
2 | CC[C@H](C)[C@@H]1NC(=O)[C@H](CO)NC(=O)[C@H](Cc2ccc(O)cc2)NC(=O)[C@H]([C@@H](C)O)NC(=O)[C@H](C)NC(=O)[C@H](C)NC(=O)CNC(=O)[C@@H](N)CSSC[C@@H](C(=O)N[C@@H](Cc2ccccc2)C(=O)O)NC(=O)[C@H](CCCCN)NC(=O)[C@H](C)NC(=O)[C@@H]2CCCN2C1=O [CH31] (H-CGAATYSIPAKCF-OH; disulfide 1-12; N-terminus and C-terminus assumed) | 6080 | certain inhibitory activity | 2630 | Residual activity of chymotrypsin (peptide 0.01 μM): 107.4 ± 5.6%; Residual activity of chymotrypsin (peptide 0.1 μM): 104.3 ± 1.7%; Residual activity of chymotrypsin (peptide 1 μM): 104.8 ± 2.6%; Residual activity of chymotrypsin (peptide 8 μM): 42.5 ± 5.9%; Residual activity of chymotrypsin (peptide 10 μM): 29.5 ± 5.1%; Residual activity of chymotrypsin (peptide 25 μM): 12.7 ± 4.0%; Residual activity of chymotrypsin (peptide 100 μM): 2.6 ± 0.3%; Residual activity of chymotrypsin (peptide 300 μM): 1.0 ± 0.1%; Residual activity of chymotrypsin (peptide 1000 μM): 0.4 ± 0.0%
3 | CC[C@H](C)[C@@H]1NC(=O)[C@H](CO)NC(=O)[C@H](Cc2ccc(O)cc2)NC(=O)[C@H]([C@@H](C)O)NC(=O)[C@H](C)NC(=O)[C@H](C)NC(=O)CNC(=O)CNC(=O)[C@@H](N)CSSC[C@@H](C(=O)N[C@@H](Cc2ccccc2)C(=O)O)NC(=O)[C@H](CCCCN)NC(=O)[C@H](C)NC(=O)[C@@H]2CCCN2C1=O [CH32] (H-CGGAATYSIPAKCF-OH; disulfide 1-13; N-terminus and C-terminus assumed) | 6380 | certain inhibitory activity | 2760 | Residual activity of chymotrypsin (peptide 0.01 μM): 99.5 ± 0.1%; Residual activity of chymotrypsin (peptide 0.1 μM): 100.2 ± 1.9%; Residual activity of chymotrypsin (peptide 1 μM): 99.0 ± 2.0%; Residual activity of chymotrypsin (peptide 4 μM): 90.1 ± 6.1%; Residual activity of chymotrypsin (peptide 6 μM): 49.2 ± 2.7%; Residual activity of chymotrypsin (peptide 8 μM): 40.8 ± 6.0%; Residual activity of chymotrypsin (peptide 25 μM): 14.4 ± 1.1%; Residual activity of chymotrypsin (peptide 100 μM): 2.2 ± 0.2%; Residual activity of chymotrypsin (peptide 300 μM): 0.7 ± 0.1%
4 | CC[C@H](C)[C@@H]1NC(=O)[C@H](CO)NC(=O)[C@H](Cc2ccc(O)cc2)NC(=O)[C@H]([C@@H](C)O)NC(=O)[C@@H](NC(=O)[C@@H](N)Cc2ccccc2)CSSC[C@@H](C(=O)N[C@@H](Cc2ccc(O)cc2)C(=O)O)NC(=O)[C@H](CCC(N)=O)NC(=O)[C@@H]2CCCN2C(=O)[C@@H]2CCCN2C1=O [CH33] (H-FCTYSIPPQCY-OH; disulfide 2-10; C-terminus assumed) | – | good inhibitory activity | – | –
5 | CC[C@H](C)[C@@H]1NC(=O)[C@H](CO)NC(=O)[C@H](Cc2ccc(O)cc2)NC(=O)[C@H]([C@@H](C)O)NC(=O)[C@@H](NC(=O)[C@@H](N)Cc2ccccc2)CSSC[C@@H](C(=O)N[C@@H](Cc2ccc(O)cc2)C(=O)N[C@@H](C)C(=O)O)NC(=O)[C@H](CCC(N)=O)NC(=O)[C@@H]2CCCN2C(=O)[C@@H]2CCCN2C1=O [CH34] (H-FCTYSIPPQCYA-OH; disulfide 2-10; N-terminus and C-terminus assumed) | – | good inhibitory activity | – | –
6 | CC[C@H](C)[C@@H]1NC(=O)[C@H](CO)NC(=O)[C@H](Cc2ccc(O)cc2)NC(=O)[C@H]([C@@H](C)O)NC(=O)[C@@H](NC(=O)[C@@H](N)Cc2ccccc2)CSSC[C@@H](C(=O)N[C@@H](CCCNC(=N)N)C(=O)O)NC(=O)[C@H](CCC(N)=O)NC(=O)[C@@H]2CCCN2C(=O)[C@@H]2CCCN2C1=O [CH35] (H-FCTYSIPPQCR-OH; disulfide 2-10; C-terminus assumed) | – | good inhibitory activity | – | Residual activity of chymotrypsin (peptide 1000 μM): 0.9 ± 0.1%
7 | CC[C@H](C)[C@@H]1NC(=O)[C@H](CO)NC(=O)[C@H](Cc2ccc(O)cc2)NC(=O)[C@H]([C@@H](C)O)NC(=O)[C@@H](NC(=O)[C@@H](N)Cc2ccccc2)CSSC[C@@H](C(=O)N[C@@H](Cc2ccc(O)cc2)C(=O)O)NC(=O)[C@H](CCCCN)NC(=O)[C@H](C)NC(=O)[C@@H]2CCCN2C1=O [CH36] (H-FCTYSIPAKCY-OH; disulfide 2-10; N-terminus and C-terminus assumed) | 3230 | – | 1390 | –
8 | CC[C@H](C)[C@@H]1NC(=O)[C@H](CO)NC(=O)[C@H](Cc2ccc(O)cc2)NC(=O)[C@H]([C@@H](C)O)NC(=O)[C@@H](NC(=O)[C@@H](N)Cc2ccccc2)CSSC[C@@H](C(=O)N[C@@H](Cc2ccc(O)cc2)C(=O)O)NC(=O)[C@H](CCC(N)=O)NC(=O)[C@H](C)NC(=O)[C@@H]2CCCN2C1=O [CH37] (H-FCTYSIPAQCY-OH; disulfide 2-10; N-terminus and C-terminus assumed) | 1810 | – | 780 | –
9 | CC[C@H](C)[C@H](N)C(=O)N[C@H]1CSSC[C@@H](C(=O)N[C@H](C(=O)O)[C@@H](C)CC)NC(=O)[C@H](CCC(N)=O)NC(=O)[C@H](C)NC(=O)[C@@H]2CCCN2C(=O)[C@H]([C@@H](C)CC)NC(=O)[C@H](CO)NC(=O)[C@H](Cc2ccccc2)NC(=O)[C@H]([C@@H](C)O)NC1=O [CH38] (H-ICTFSIPAQCI-OH; disulfide 2-10; N-terminus and C-terminus assumed) | 4980 | – | 2150 | –
10 | CC[C@H](C)[C@H](N)C(=O)N[C@H]1CSSC[C@@H](C(=O)N[C@@H](Cc2ccccc2)C(=O)O)NC(=O)[C@H](CCC(N)=O)NC(=O)[C@H](C)NC(=O)[C@@H]2CCCN2C(=O)[C@H]([C@@H](C)CC)NC(=O)[C@H](CO)NC(=O)[C@H](Cc2ccccc2)NC(=O)[C@H]([C@@H](C)O)NC1=O [CH40] (H-ICTFSIPAQCF-OH; disulfide 2-10; N-terminus and C-terminus assumed) | 2460 | – | 1060 | –
11 | CSCC[C@@H]1NC(=O)[C@H](CO)NC(=O)[C@H](Cc2ccc(O)cc2)NC(=O)[C@H]([C@@H](C)O)NC(=O)[C@@H](NC(=O)[C@@H](N)Cc2ccccc2)CSSC[C@@H](C(=O)N[C@H](C(=O)O)C(C)C)NC(=O)[C@H](Cc2c[nH]cn2)NC(=O)[C@@H]2CCCN2C(=O)[C@@H]2CCCN2C1=O [CH41] (H-FCTYSMPPHCV-OH; disulfide 2-10; N-terminus and C-terminus assumed) | 2600 | – | 1120 | –
12 | CC(C)C[C@H](NC(=O)[C@@H]1CSSC[C@H](NC(=O)[C@@H](N)CCCNC(=N)N)C(=O)N[C@@H](CC(=O)O)C(=O)N[C@@H](Cc2ccccc2)C(=O)N[C@@H](CO)C(=O)N[C@@H](Cc2c[nH]c3ccccc23)C(=O)N2CCC[C@H]2C(=O)N2CCC[C@H]2C(=O)N[C@@H](CCCNC(=N)N)C(=O)N1)C(=O)O [CH42] (H-RCDFSWPPRCL-OH; disulfide 2-10; N-terminus and C-terminus assumed) | > 50000 | – | – | –
